Structures can show the parent of a compound that is named as a salt. ± gives the standard deviation of the averaged measurements.
System: HepaRG
Experiment: LDH release cytotoxicity, % of total lysis control; higher = more cytotoxic
Conditions: 48 h
Summary of the method: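 Eight-point half-log series of test chemicals, the highest at 100 µM, were given in duplicate for 48 h to single-lot HepaRG cells on collagen I-coated 96-well plates in serum-free induction medium with 0.5% DMSO. A Tecan Safire read resorufin fluorescence from CytoTox-ONE as a measure of LDH in 50 µL spent medium, with 0.1% Triton X in total lysis wells. Percent cytotoxicity was normalized to on-plate vehicle and total lysis controls and averaged over the duplicates.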

SMILES | LDH release cytotoxicity (0.03162 µM) | LDH release cytotoxicity (0.1 µM) | LDH release cytotoxicity (0.3162278 µM) | LDH release cytotoxicity (1 µM) | LDH release cytotoxicity (3.16228 µM) | LDH release cytotoxicity (10 µM) | LDH release cytotoxicity (31.6228 µM) | LDH release cytotoxicity (100 µM) | further results
OCc1ccccc1 [Benzyl alcohol] | -0.977 ± 0.76% | -1.47 ± 0.31% | -1.57 ± 1.4% | -2.41 ± 1.3% | -1.69 ± 0.91% | -1.73 ± 1.6% | -1.32 ± 1.4% | -1.07 ± 1.2% | 
CCCCCCCC[Si](OCC)(OCC)OCC [Triethoxyoctylsilane] | -0.684 ± 0.49% | 0.171 ± 0.31% | -0.00576 ± 0.17% | -0.327 ± 0.22% | 0.39 ± 0.57% | 0.433 ± 0.79% | 0.376 ± 0.72% | 1.59 ± 0.21% | 
COCCOCCOC [Diethylene glycol dimethyl ether] | -0.901 ± 0.75% | -2.67 ± 0.22% | -2.41 ± 0.75% | -2.68 ± 1.4% | -1.55 ± 0.41% | -0.488 ± 0.045% | -0.826 ± 0.12% | 0.75 ± 0.028% | 
CSC(C)=NOC(=O)N(C)SN(C)C(=O)ON=C(C)SC [Thiodicarb] | 0.264 ± 0.45% | 0.37 ± 0.55% | -0.268 ± 0.33% | 0.546 ± 0.75% | 0.811 ± 0.23% | 1.07 ± 0.71% | 1.06 ± 0.2% | 1.18 ± 0.48% | 
CC(C)(C)c1cc(C=C2SC(=N)NC2=O)cc(C(C)(C)C)c1O [Darbufelone mesylate] | -2.49 ± 0.67% | -3.41 ± 0.28% | -3.09 ± 0.45% | -3.16 ± 0.65% | -3.23 ± 0.27% | -3.27 ± 0.089% | -2.49 ± 1% | -1.56 ± 0.092% | 
CN(C)C(=O)C1(N2CCCCC2)CCN(CCC2(c3ccc(Cl)c(Cl)c3)CN(C(=O)c3ccccc3)CCO2)CC1 (centres undefined) |  |  |  |  |  |  |  |  | LDH release cytotoxicity (0.02988 µM): -0.742 ± 0.13%; LDH release cytotoxicity (0.0945 µM): -0.252 ± 0.56%; LDH release cytotoxicity (0.298835 µM): -0.7 ± 0.3%; LDH release cytotoxicity (0.945 µM): -0.736 ± 0.65%; LDH release cytotoxicity (2.98835 µM): -0.21 ± 0.34%; LDH release cytotoxicity (9.45 µM): 0.674 ± 0.023%; LDH release cytotoxicity (29.8835 µM): 69.1 ± 16%; LDH release cytotoxicity (94.5 µM): 85.4 ± 2.6%
CCN1CCC2(CC1)COc1cc3c(cc12)N(C(=O)c1ccc(-c2ccc(-c4nnc(C)o4)cc2C)cc1)CC3 | -2.84 ± 1.3% | -2.94 ± 0.81% | -1.93 ± 1.5% | -3.08 ± 0.76% | -3.21 ± 1.3% | -2.54 ± 0.92% | -2.8 ± 0.8% | -0.687 ± 1.4% | 
C=C(C)C(=O)[O][Sn]([CH2]CCC)([CH2]CCC)[CH2]CCC [Tributyltin methacrylate] | -1.27 ± 0.67% | -1.27 ± 0.21% | -0.912 ± 0.44% | -1.5 ± 0.47% | 37.9 ± 0.45% | 56.38 ± 0.14% | 55.58 ± 0.35% | 59.2 ± 1.2% | 
O=S(=O)(O)C(F)(F)C(F)(F)C(F)(F)C(F)(F)C(F)(F)C(F)(F)F [Potassium perfluorohexanesulfonate] | -0.914 ± 0.81% | -1.15 ± 0.31% | -1.06 ± 1.8% | -1.98 ± 1.6% | -1.95 ± 1.2% | -0.831 ± 1.7% | -1.52 ± 1% | -0.438 ± 1.6% | 
CCCCCCCCCCCCc1cccc(S(=O)(=O)O)c1 [Dodecylbenzene sulfonate triethanolamine(1:1)] |  |  |  |  |  |  |  |  | LDH release cytotoxicity (0.02846 µM): -1.49 ± 0.8%; LDH release cytotoxicity (0.09 µM): -0.848 ± 1.3%; LDH release cytotoxicity (0.284605 µM): -1.53 ± 0.58%; LDH release cytotoxicity (0.9 µM): -1.22 ± 0.78%; LDH release cytotoxicity (2.84605 µM): -0.852 ± 0.19%; LDH release cytotoxicity (9 µM): -1.11 ± 0.016%; LDH release cytotoxicity (28.4605 µM): -0.984 ± 0.56%; LDH release cytotoxicity (90 µM): 5.69 ± 0.45%
Cc1occc1C(=O)Nc1ccc(C(=O)N2CCC(F)(F)/C(=C\C(=O)N3CCC(N4CCCCC4)CC3)c3ccccc32)cc1 [YM218] |  |  |  |  |  |  |  |  | LDH release cytotoxicity (0.01976 µM): -1.36 ± 0.064%; LDH release cytotoxicity (0.0625 µM): -1.93 ± 1.9%; LDH release cytotoxicity (0.197642 µM): -3.13 ± 1.1%; LDH release cytotoxicity (0.625 µM): -2.977 ± 0.0083%; LDH release cytotoxicity (1.976424 µM): -3.81 ± 0.63%; LDH release cytotoxicity (6.25 µM): -2.99 ± 0.55%; LDH release cytotoxicity (19.7642 µM): -1.84 ± 0.55%; LDH release cytotoxicity (62.5 µM): 19.8 ± 2.1%
O=S1(=O)CCCO1 [1,3-Propane sultone] | -0.997 ± 0.28% | -2.2 ± 0.45% | -1.51 ± 0.54% | -1.38 ± 0.031% | -1.5 ± 0.31% | -1.53 ± 0.35% | -0.817 ± 0.19% | -0.0166 ± 1.5% | 
CCN(C(=O)c1cc(C)cc(OCC(C)Nc2ccncc2)c1)C(C)C (centres undefined) |  |  |  |  |  |  |  |  | LDH release cytotoxicity (0.02135 µM): -1.12 ± 0.23%; LDH release cytotoxicity (0.0675 µM): -0.177 ± 0.3%; LDH release cytotoxicity (0.2134537 µM): -0.209 ± 0.26%; LDH release cytotoxicity (0.675 µM): 0.1 ± 0.83%; LDH release cytotoxicity (2.13454 µM): -0.21 ± 0.13%; LDH release cytotoxicity (6.75 µM): -0.0445 ± 0.25%; LDH release cytotoxicity (21.345374 µM): 0.884 ± 0.24%; LDH release cytotoxicity (67.5 µM): 19 ± 3.4%
CCCCN(CC)c1c([N+](=O)[O-])cc(C(F)(F)F)cc1[N+](=O)[O-] [Benfluralin] |  | -1.73 ± 1.2% |  | -2.54 ± 0.81% | -2.56 ± 0.43% | -1.12 ± 0.72% | -1.14 ± 0.56% | -0.374 ± 0.11% | LDH release cytotoxicity (0.031623 µM): -0.0474 ± 0.18%; LDH release cytotoxicity (0.316228 µM): -1.78 ± 0.15%
COP(=S)(OC)Oc1ccc([N+](=O)[O-])c(C)c1 [Fenitrothion] | -1.98 ± 1.1% | -2.13 ± 1.2% | -0.603 ± 0.67% | -1.11 ± 0.74% | -0.939 ± 0.39% | -0.576 ± 0.69% | -0.104 ± 0.3% | 0.45 ± 0.39% | 
CCC(C)(C)c1ccc(O)c(C(C)(C)CC)c1 [2,4-Di-tert-pentylphenol] | 0.622 ± 0.85% | -1.25 ± 0.82% | -0.993 ± 0.16% | -1.77 ± 0.046% | -1.69 ± 0.36% | -1.3 ± 0.39% | -1.19 ± 0.04% | 0.754 ± 0.54% | 
Nc1c(Cl)c(Cl)nc(C(=O)O)c1Cl [Picloram] |  | -3.68 ± 0.1% |  | -3.09 ± 0.29% | -2.76 ± 0.56% | -2.73 ± 0.51% | -2.11 ± 0.71% | 0.666 ± 0.78% | LDH release cytotoxicity (0.031623 µM): -0.672 ± 0.84%; LDH release cytotoxicity (0.316228 µM): -3.74 ± 1.5%
CC(=O)CC(c1ccccc1)C1C(=O)Oc2ccccc2C1=O (centres undefined) [Warfarin] | -1.66 ± 0.38% | -1.26 ± 0.31% | -0.808 ± 0.67% | -0.262 ± 1.4% | -0.866 ± 0.073% | -0.731 ± 0.26% | 0.385 ± 0.24% | 2.56 ± 0.55% | 
